Read-outs that look alike come from different tables or passages of the source. Blank lines part the entries; values can stand above or below the compound they belong to.
Columns and labels:
CT26‐luc cells = test: Annexin V-FITC/propidium iodide (AV/PI) cell viability assay by flow cytometry; assay type: cell-based, mouse; conditions: in the dark, 24 h
Description: Following the gold standard assessment method, the Annexin V‐FITC/propidium iodide (AV/PI) dual staining assay was conducted to screen the suitable concentrations of each drug (Figure S25). In addition, to better monitor tumor growth in vivo, luciferase‐labelled tumor cells (CT26‐luc) were used for in vivo experiments by bioluminescence imaging. […] As the concentration of each drug was increased, the proportion of live cells decreased, while the percentage of dying cells (Q3, Annexin V^+/PI^−) and dead cells (Q2, Annexin V^+/PI^+ and Q1, Annexin V^−/PI^+) increased. The concentrations at which approximately 5% of the cells remained alive (IC95) were 600 µM for Cisplatin in the dark, 1.8 µM for Os2, and 6.5 µM for Ce6 upon 740 nm LED light irradiation (60 min, 12.6 J cm^−2). These concentrations were selected for the subsequent in vivo vaccination studies. […]
incubated for 24 h. Cells were then treat ed with the determined IC50 of complexes and irradiated or kept in the dark. Supernatants were collected 12 h post-t reatm ent, and the extracellular ATP content was measured with Adenosine 5′ -triphosphate (ATP) Bioluminescent Assay Kit (Sigma-Aldrich) according tomanufacturer ’s ins truction. […]
(§1) 556419) and PI (BD Biosciences, Catalog no.51- 66211E). CT26- luc cells were analyzed by flow cytometry (Beckm an Coulter Life Sciences, CytoFLEX LX Flow Cytometer). […]

MCA205 cells [1] = test: as above; assay type: cell-based, mouse; conditions: MCA205, in the dark
Source text: Regarding the optimal dose of each drug for in vivo vaccination, we continued to follow the same standards as with CT26‐luc cells, using the concentration of each drug that results in approximately 5% of live cells as the in vivo dose. The testing method remained the same, using the AV/PI dual staining assay. Negative controls still included the untreated group (direct injection of PBS solution) and the non‐ICD inducer Cisplatin. Based on the in vitro HMGB‐1 release results, Ce6 was maintained as the positive control. For a more comprehensive comparison, we also added the platinum‐based chemotherapeutic agent Oxaliplatin as a non‐PS ICD inducer, serving as an additional positive control.
As the drug concentration increased, the cells gradually shifted to dying (Q3, Annexin V^+/PI^−) or dead (Q2, Annexin V^+/PI^+ and Q1, Annexin V^−/PI^+) state. For MCA205 cells, the concentrations corresponding to approximately 5% cell survival for each drug were 500 µM Cisplatin and 1400 µM Oxaliplatin in the dark, 5.5 µM Ce6 and 3 µM Os2 under 740 nm LED light illumination. […]
incubated for 24 h. Cells were then treat ed with the determined IC50 of complexes and irradiated or kept in the dark. Supernatants were collected 12 h post-t reatm ent, and the extracellular ATP content was measured with Adenosine 5′ -triphosphate (ATP) Bioluminescent Assay Kit (Sigma-Aldrich) according tomanufacturer ’s ins truction.
Cell viability assay f o r in vivo by flow cytometry
CT26-luc or MCA205 cells were seeded in 6-well plates at a density of 1 ×1 05 cells per well and cultured for 24 h at 37 °C with 5% CO 2. The medium was replaced by various concentrations of the compound dilutions in fresh medium.For Ce6 and Os2, after 4 h incubation in the dark, the medium w as r efr eshed and the plates wer e illuminated with a LUMOS-BIO photoreactor (Atlas Photonics), followed by an additional 20- h incubation in the dark. […]
as §1

MCA205 cells [2] = test: In vivo vaccination and rechallenge, MCA205 model; design: species or system C57BL/6 mice; conditions: vaccination with MCA205 cells pre-treated with 500 µM Cisplatin or 1400 µM Oxaliplatin (dark), 5.5 µM Ce6 or 3 µM Os2 (740 nm)
Source text: Next, we used these concentrations in the MCA205 vaccination and rechallenge model on C57BL/6 mice to test the in vivo ICD effect of Os2, following the same experimental procedure as that used for CT26‐luc cells in Figure 5A. […] Body weights remained stable across all groups throughout the study, further supporting the good in vivo biosafety of Os2.
The BALB/c female mice were randomly divided into 4 groups with each group containing 5 mice, which were named as Control group, Cisplatin group, Ce6 group and Os2 group. CT26-luc cells wer e treat ed in vitro with 600 µM Cisplatin in the dark, 6.5 µM Ce6 or 1.8 µM Os2 upon 740 nm LED light irradiation (60 min, 12.6 J cm-2) following the methods described above. Subsequently, treated CT26-luc cells (3×10^5 cells in 100 µ L sterile PBS) or 100 µ L sterile PB S were injected subcutaneously into the left flank of each mouse. One week later, mice were r echalleng ed by injection with untreated CT26- luc cells (1×10^6 cells in 100 µL sterile PBS). The mice were monitored by an in vivo imaging system (Biospace Lab, Photon Imager Optima) and the tumor volume was calculated with the following equation: tumor volume = width 2 × length × […]
In vivo vaccination study on MCA205 cells
The C57BL/6 mice were randomly divided into 5 groups with each group containing 10 mice, whi ch w ere nam ed as Control group, Cisplatin group, Oxaliplatin group, Ce6 group and Os2 group. M CA205 cells were treated in vitro with 500 µM Cisplatin o r 1400 µM Oxaliplatin in the dark, 5.5 µM Ce6 or 3 µM Os2 upon 740 nm LED light irradiation (60 min, 12.6 J cm-2) following the methods described above. Subsequently, treated MCA205 cells (3 ×10^5 cells in 100 µ L sterile PBS) or 100 µ L sterile PBS were injected subcutaneously into the left flank of each mouse. One week later, mice were rechallenged by injection with untreated MCA205 cells (1×10^6 cells in 100 µ L sterile PBS). The tumor volume was calculated with the following equation: tumor volume =

[3] = tested on: mouse fibrosarcoma (MCA205) cells; test: Resazurin cell viability assay, phototoxicity; assay type: cell-based; conditions: MCA-205, light or radiation study, 1 h, MCA205, 740 nm, 60 min, 12.60 J/cm2
Description: (100 U ml−1), streptomycin (100 U ml−1), and 1% L-glutamine. The murine fibrosarcom a (MCA205) cells were cultured in RPMI 1640 medium with 10% fetal bovine serum (FBS), penicillin (100 U ml−1), streptomycin (100 U ml−1), and 1% L-glutamine. All cells were incubated at 37 °C in a humidified atmosphere with 5 % CO2.
(§2) Normoxia. The in vitro viability of cells exposed to the complexes was determined using a resazurin assay. C ells were seeded in 96-well plates at densities of 4,000 cells/well for CT26, MC A205 and U-87 MG cells, and 8,000 cells/well for MRC-5 and NIH/3T3 cells. A fter 24 h of growth at 37 °C wit h 5% CO2, the medium was replaced with fresh medium containing various concentrations of the compounds . Following a 4- h incubation in the dark, the medium was refres hed , and the plates were exposed to irradiation usinga LUM OS -BIO photoreactor (At las Photonics).N on- ir rad iated plates were similarly refr eshed with medium and kept in the dark for the same duration. After a 40- h r ecov ery period, a f reshly pr epar ed resazurin solution (0.2 mg/mL) was added to each well, and the plates were left in the dark for 4 h before analysis on a B i o Te k Cytation 5 Cell Imaging Multimode Reader (Agil ent Technologies). […]

[4] = tested on: mouse colon adenocarcinoma (CT26) cells; test: Resazurin cell viability assay, (photo)cytotoxicity, normoxia; assay type: cell-based; conditions: for IC50: Mus musculus, normoxia
Description: Given that most ICD studies focus on breast, non‐small cell lung carcinoma, and colon cancer, and since ICD was first discovered in mouse colon cancer cells (CT26), we initially tested our compounds on CT26 cells. Cells were incubated with nine different concentrations (mainly from 0.01 to 100 µM) of the compounds for 4 h in the dark. Then, the diluted solutions containing the compounds were replaced by fresh medium, and the cells were either illuminated or kept in the dark for 1 h more. After 2 days, IC50 values (concentration of the agent inhibiting cell growth by 50%) were determined with the resazurin assay, using chlorin e6 (Ce6) and protoporphyrin IX (PpIX) for comparison (Figure S10). The clinically approved chlorin mixture Radachlorin contains ∼80% Ce6, while 5‐aminolevulinic acid (Ameluz and Levulan) and methyl 5‐aminolevulinate (Metvix and Metvixia) serve as precursors of PpIX. Therefore, Ce6 and PpIX were used for comparison purposes.
(100 U ml−1), streptomycin (100 U ml−1), and 1% L-glutamine. […]
All cells were incubated at 37 °C in a humidified atmosphere with 5 % CO2.
as §2

[5] = Photophysical properties (fluorescence and singlet oxygen quantum yield, lifetime); assay type: physicochemical; conditions: in ethanol
Description: System Inc, Phoenixville, PA, USA). The excitation beam is separated by a SPEX dual […]
network monochromator (1200 lines / mm blazed at 330 nm). The fluorescence was […]
measured by the UV-Visible detector via the SPEX dual network emission […]
monochromator (1200 lines / mm blazed at 500 nm). Singlet oxygen production was […]
measured with an infrared detector InGaAs (800 - 1550 nm) via the dual network […]
emission monochromator SPEX (600 lines / mm blazed at 1 µm).
All spectra were measured using 4-sided quartz cells. The absorption values of the […]
references and samples at the excitation wavelength were adjusted to 0.2. All emission […]
spectra were normalized to the same absorbance for the purpose of comparison.
[Ru(bpy)3]2+ in acetonitrile was chosen as standard for both fluorescence and singlet […]
oxygen quantum yield determination. Fluorescence quantum yield of [ Ru(bpy)3]2+ i n […]
acetonitrile is evaluated at 0.077.[5] Singlet oxygen quantum yield of [ Ru(bpy)3]2+ i n […]
acetonitrile is evaluat ed at 0.77.[6]
Time-resolved experiments were performed using for excitation: a pulsed laser diode […]
emitting at 407 nm (LDH-P-C-400M, FWHM < 70 ps, 1 MHz) coupled with a driver […]
PDL 800- D (both PicoQuant GmbH, BERLIN, Germany) and for detection: an […]
avalanch e photodiode SPCM-AQR-15 (EG & G, VAUDREUIL, Can ada) coupled with […]
a 650 nm long- wav e p ass filter as det ection system. The acquisition was p erformed by […]
a PicoHarp 300 module with a 4 channels router PHR-800 (both PicoQuant GmbH, […]
BERLIN, Germany ). Th e fluores cence decays were recorded using the single photon […]
counting method. Data were collected up to 1000 counts accumulated in the maximum […]
channel and analyzed using Time Correlated Single Photon Counting (TCSPC) […]
software Fluofit (PicoQuant GmbH, BERLIN, Germany) based on iterative reconvolution using a Levensberg- M arquandt alg oritm, enabling the obtention of multi-exponential profiles (m ainly one or two exponenti als in our cases ). […]

[6] = standard, in acetonitrile; cited from earlier work

Structure (SMILES): N.N.[Cl][Pt][Cl] [Cisplatin]
Concentration at which approximately 5% of the cells remained alive (IC95) (CT26‐luc cells): 600 µM
Concentration corresponding to approximately 5% cell survival (MCA205 cells [1]): 500 µM
Tumor growth (MCA205 cells [2]): Almost no inhibition

Structure (SMILES): Cc1cc(O)c2c(=O)c3c(O)cc(O)c4c5c(O)cc(O)c6c(=O)c7c(O)cc(C)c8c1c2c(c34)c(c78)c65 [Hypericin]
IC50 [3]: 1.66 ± 0.18 µM

Structure (SMILES): O=C1[O][Pt]2([NH][C@@H]3CCCC[C@H]3[NH]2)[O]C1=O [Oxaliplatin]
Concentration corresponding to approximately 5% cell survival (MCA205 cells [1]): 1400 µM
Tumor growth (MCA205 cells [2]): partial suppression

Fluorescence lifetime [5]: 12.1 ns
Fluorescence quantum yield [5]: 0.05
Singlet oxygen quantum yield [5]: 0.77
Structure (SMILES): C=CC1=C(C)c2cc3[nH]c(cc4nc(cc5[nH]c(cc1n2)c(C)c5CCC(=O)O)C(CCC(=O)O)=C4C)c(C)c3C=C [PpIX, protoporphyrin IX]
PI (phototoxicity index, IC50 dark/IC50 light) ([4]; CT26, 620 nm): >110
IC50 ([4]; CT26, CT26, dark, read-out: IC50 Dark): > 100 µM
IC50 ([4]; CT26, light or radiation study, 1 h, CT26, 620 nm, 1.88 mW/cm^2, 60 min, read-out: IC50 620 nm (1 h, 6.75 J/cm^2)): 0.91 ± 0.1 µM
IC50 [3]: 4.41 ± 0.09 µM

Structure (SMILES): [Ru+2].c1ccc(-c2ccccn2)nc1.c1ccc(-c2ccccn2)nc1.c1ccc(-c2ccccn2)nc1 [[Ru(bpy)3]2+]
Fluorescence quantum yield [6]: 0.077
Singlet oxygen quantum yield [6]: 0.77
